According to US10695348B2, “Sulfonyl pyridyl TRP inhibitors” (Genentech, Inc., priority 2017, dated 2020):
≈ marks a conversion by molar mass, not a printed value.

What was measured:
[1] = Aqueous solubility (K. Sol); assay type: physicochemical; conditions: aqueous medium (not further specified), kinetic from dmso stock; read-out: K. Sol (estimated aqueous solubility)
Description: Aqueous solubility may be determined using the procedures reported by Alsenz et al., “High throughput solubility measurement in drug discovery and development,” Advanced Drug Delivery Reviews (2007) 59, 546-568 and Kibbey et al., “An Integrated Process for Measuring the Physicochemical Properties of Drug Candidates in a Preclinical Discovery Environment,” J. Pharmaceutical Sci. (2001) 90(8), 1164-1175.

[2] = molecular target: T1, human TRPA1 (Homo sapiens, UniProt O75762); test: FLIPR Tetra calcium influx assay, CHO cells expressing TRPA1, cinnamaldehyde agonist (hTRPA1 CHO Ca2+ AUC EVO); assay type: cell-based
T1 construct: expressed in transfected cells; host or cells: CHO cells
T1 sequence (O75762 whole entry): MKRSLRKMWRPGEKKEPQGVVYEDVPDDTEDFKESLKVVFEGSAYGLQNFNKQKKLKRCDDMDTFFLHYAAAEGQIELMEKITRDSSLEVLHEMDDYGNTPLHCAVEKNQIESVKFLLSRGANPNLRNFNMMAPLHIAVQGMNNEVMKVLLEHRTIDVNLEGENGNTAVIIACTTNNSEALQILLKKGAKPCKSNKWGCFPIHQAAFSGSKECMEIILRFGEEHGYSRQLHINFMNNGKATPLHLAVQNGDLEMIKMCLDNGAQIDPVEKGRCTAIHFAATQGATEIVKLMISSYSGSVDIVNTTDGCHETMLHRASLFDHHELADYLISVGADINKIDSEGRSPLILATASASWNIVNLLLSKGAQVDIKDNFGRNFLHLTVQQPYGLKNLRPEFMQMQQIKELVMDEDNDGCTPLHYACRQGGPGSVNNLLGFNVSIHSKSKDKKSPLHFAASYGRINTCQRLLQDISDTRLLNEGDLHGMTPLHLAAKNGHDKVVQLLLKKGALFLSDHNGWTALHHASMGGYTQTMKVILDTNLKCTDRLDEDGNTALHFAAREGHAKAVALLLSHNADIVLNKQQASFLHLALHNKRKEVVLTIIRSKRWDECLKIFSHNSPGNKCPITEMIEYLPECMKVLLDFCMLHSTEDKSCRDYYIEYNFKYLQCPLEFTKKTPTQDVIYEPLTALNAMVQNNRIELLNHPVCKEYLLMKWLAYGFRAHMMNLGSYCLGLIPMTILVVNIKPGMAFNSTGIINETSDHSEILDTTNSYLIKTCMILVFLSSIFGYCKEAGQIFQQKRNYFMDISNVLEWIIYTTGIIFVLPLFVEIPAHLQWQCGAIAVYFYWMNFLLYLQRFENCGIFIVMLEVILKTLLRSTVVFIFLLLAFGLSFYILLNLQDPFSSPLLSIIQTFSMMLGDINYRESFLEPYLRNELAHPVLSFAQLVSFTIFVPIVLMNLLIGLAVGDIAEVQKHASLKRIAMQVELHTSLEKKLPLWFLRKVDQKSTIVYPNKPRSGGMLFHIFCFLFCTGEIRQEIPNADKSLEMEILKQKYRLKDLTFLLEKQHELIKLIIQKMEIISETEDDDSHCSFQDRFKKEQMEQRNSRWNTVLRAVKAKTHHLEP
Experimental: The IC50 ([…]) of compounds on the human and rat TRPA1 channels were determined using a FLIPR Tetra instrument. CHO cells expressing TRPA1 were plated into 384-well plates, incubated overnight at 37° C., and loaded with BD calcium indicator dye for 1 hr at 37° C. followed by 15 minutes at room temperature. The assay buffer was Hank's Balanced Salt Solution (HBSS) containing 20 mM HEPES (pH readjusted to 7.4) along with 0.02% BSA.
Following dye load and plate cool down, compounds were added to the cells using FLIPR Tetra. Plates were then incubated with compounds for 20 minutes at room temperature prior to adding agonist. Following this incubation, about an EC80 concentration of cinnamaldehyde (75 uM for human TRPA1 and 45 uM for rat TRPA1) was added to active the channels and block of cinnamaldehyde induced calcium influx was measured.
The IC50 results were fit with a standard Hill function, keeping the Hill coefficient (n) fixed to 1.5. Fixing the Hill coefficient will generally reduce variability of the IC50 determination. The IC50 results were individually examined to make sure the MIN and MAX points were set correctly prior to validation of the results.

[3] = Human protein plasma binding; assay type: in vitro ADME; conditions: read-out: hPPB (human protein plasma binding) (converted)
Experimental: Certain pharmacokinetic attributes were evaluated for sulfonyl pyridyl compounds of the present disclosure. The results are shown in Table 3 below where: “hTRPA1” refers to IC50 in nM; “hPPB” refers to human protein plasma binding in percent; “Corrected IC50” refers to the hTRPA1 values corrected for hPPB; “HLM-CLhep” refers to human liver microsome clearance in mL/min/kg; “K.Sol” refers to estimated aqueous solubility in μM; and “NR” refers to not run.
Human protein plasma binding may be measured according to the methods described by Banker et al., “Plasma/Serum Protein Binding Determinations,” Current Drug Metabolism (2008), 9, 854-859, and Kariv et al., “Development of a high throughput equilibrium dialysis method,” J. Pharm Sci. (2001) May; 90(5):580-87, as well as using commercially available assay kits by Wyatt, Cerep, Cyprotex and others.

[4] = Human liver microsome clearance / stability; assay type: in vitro ADME; conditions: human liver microsomes
Description: Human liver microsome clearance (mL/min/kg) may be measured according to the method described by Ackley et al, “Metabolic Stability Assessed by Liver Microsomes and Hepatocytes”, in “Optimization in Drug Discovery” in the “Methods in Pharmacology and Toxicology” series (ISSN 1557-2153), pp. 151-162 (Yan, Ed., Print ISBN 978-1-58829-332-9, Springer (2004), as well as by using commercially available assay kits by Cerep, Cyprotex, Bd Bioscience and others.
Human liver microsome HLM stability may be measured as using the procedure of Ackley et al. as described above.

[5] = molecular target: T1, human TRPA1; test: Human Ca2+ MAX IC50 calcium assay; assay type: cell-based; conditions: Table 5; read-out: H Ca2+ MAX (human CA2+ MAX IC50)
Description: Human Ca2+ MAX IC50 may be measured using one of the commercially available calcium assay kits provided by Molecular Devices, Abcam, Bio-Rad, Biovision, Enzo Lifesciences, Abnova, Sigma-Aldrich, or others.

[6] = GSH (glutathione) trapping of reactive metabolites; assay type: in vitro ADME; conditions: in vitro incubation with glutathione as trapping reagent
Experimental: GSH trapping in a method for screening reactive metabolites for the potential to cause adverse drug reactions. Reactive metabolites may implicate clinical toxicity through drug compound bioactivation or inactivation of proteins. One such assessment utilizes in vitro incubations comprising glutathione (GSH) as a trapping reagent. LC/MS may be used to detect and characterize reactive intermediate formation as indicated by trapped glutathione adducts, as described by Yan et al., “Stable Isotope Trapping and High Throughput Screenings of Reactive Metabolites Using the Active MS Signature,” Anal. Chem. (2004), 76, 6835-6847.

[7] = Table 3, read-out: hTRPA1 (IC50)
[8] = calculated from hTRPA1 IC50 and hPPB, read-out: Corrected IC50 (hTRPA1 values corrected for hPPB)

| solubility [1] | IC50 [2, 7] | IC50 [2, 8] | fraction unbound [3] | HLM-CLhep (human liver microsome clearance) ([4]; Table 3) | IC50 [5] | HLM (human liver microsome stability) ([4]; Table 5) | GSH trapping (glutathione trapping) [6] | SMILES |
| --- | --- | --- | --- | --- | --- | --- | --- | --- |
| 30 µM (≈ 18.3 µg/mL) | 7.9 nM | 161 nM | 0.049 | 4 mL/min/kg |  |  |  | C[C@H]1[C@H](F)C[C@@H](C(=O)NCc2cc(-c3cnc(C(F)(F)F)nc3)ncc2C(F)(F)F)N1S(=O)(=O)c1ccc(F)cn1 (single isomer, unassigned) [Pyridyl Sulfonamide 1] |
| 4 µM (≈ 2.24 µg/mL) | 404 nM | 5400 nM | 0.075 |  |  |  |  | C[C@H]1[C@H](F)C[C@@H](C(=O)NCc2cc(-c3cnc(C(F)(F)F)nc3)ncc2F)N1S(=O)(=O)c1ccc(F)cn1 (single isomer, unassigned) [Pyridyl Sulfonamide 2] |
|  | 329 nM | 1940 nM | 0.17 |  |  |  |  | C[C@H]1[C@H](F)C[C@@H](C(=O)NCc2cc(-c3cnc(C(F)(F)F)nc3)cnc2C(F)F)N1S(=O)(=O)c1ccc(F)cn1 (single isomer, unassigned) [Pyridyl Sulfonamide 3] |
|  |  |  |  |  | 5 nM | 6.6 mL/min/kg | positive | C[C@H]1[C@H](F)C[C@@H](C(=O)NCc2cc(-c3cnc(C(F)(F)F)nc3)ncc2C(F)(F)F)N1S(=O)(=O)c1ccc(Cl)nc1 [Compound 5] |
